Test results taken from the NIST ThermoML archive (doi:10.1016/j.tca.2007.10.001).
Numbers after ± are expanded uncertainties.

How the values were obtained:
[1] = Crystal; DTA
[2] = Molar enthalpy of transition or fusion; details: Crystal
[3] = molar heat capacity at constant pressure; details: 101.33 kPa, Crystal

c1cnc2c(c1)ccc1cccnc12 [1,10-phenanthroline]
Details | Molar enthalpy of transition or fusion [kcal/mol] | Triple point temperature [K]
[1] | – | 391.1 ± 0.6
[2] | 2.82 ± 0.884 | –

[3]
Details | molar heat capacity at constant pressure [J/K/mol]
298.2 K | 115 ± 37
300.2 K | 116 ± 37
302.2 K | 117 ± 37
304.2 K | 125 ± 40
306.2 K | 127 ± 41
308.2 K | 133 ± 43
310.2 K | 140 ± 45
312.2 K | 150 ± 48
314.2 K | 156 ± 50
316.2 K | 165 ± 53
318.2 K | 175 ± 56
320.2 K | 184 ± 59
322.2 K | 192 ± 61
324.2 K | 199 ± 64
326.2 K | 206 ± 66
328.2 K | 213 ± 68
330.2 K | 221 ± 71
332.2 K | 226 ± 72
334.2 K | 235 ± 75
336.2 K | 237 ± 76
338.2 K | 245 ± 78
340.2 K | 247 ± 79
342.2 K | 253 ± 81
344.2 K | 253 ± 81
346.2 K | 256 ± 82
348.2 K | 260 ± 83
350.2 K | 263 ± 84
352.2 K | 265 ± 85
354.2 K | 270 ± 86
356.2 K | 271 ± 87
358.2 K | 276 ± 88
360.2 K | 279 ± 89

Cc1ccc2ccc3ccc(C)nc3c2n1 [2,9-dimethyl-1,10-phenanthroline]
Details | Molar enthalpy of transition or fusion [kcal/mol] | Triple point temperature [K]
[1] | – | 435.9 ± 1
[2] | 4.21 ± 1.2 | –

[3]
Details | molar heat capacity at constant pressure [J/K/mol]
298.2 K | 253 ± 81
303.2 K | 274 ± 88
308.2 K | 292 ± 93
313.2 K | 306 ± 98
318.2 K | 321 ± 100
323.2 K | 331 ± 110
328.2 K | 345 ± 110
333.2 K | 354 ± 110
338.2 K | 361 ± 120
343.2 K | 370 ± 120
348.2 K | 373 ± 120
353.2 K | 374 ± 120
358.2 K | 383 ± 120
363.2 K | 383 ± 120
368.2 K | 387 ± 120
373.2 K | 384 ± 120
378.2 K | 386 ± 120
383.2 K | 390 ± 120
388.2 K | 386 ± 120
393.2 K | 383 ± 120
